Where a SMILES comes first, the peptide text is derived from it. Bridges are numbered along the chain shown (N, C = ends). Where no end group is shown, it is not given here.
Experiments:
[1] = test system: pseudotyped viruses expressing SARS-CoV-2 spike proteins (Wuhan-Hu-1)
HEK 293T-hACE2 cells = test: Cytotoxicity assay (MTS); details: 1-50 μg/mL, 24 h; hACE2-expressing HEK293T cells; O.D. 490 nm; 4-6 samples
[2] = test system: pseudotyped SARS-CoV-2 viruses in lung epithelial A549 cells; assay type: cell-based; details: 25 μg/mL
[3] = test system: pseudotyped SARS-CoV-2 viruses in intestinal epithelial Caco-2 cells; details: 25 μg/mL

For “HBD6 (FFDEKCNKLKGTCKNNCGKNEELIALCQKSLKCCRTIQPCGSIID; ends and bridges not checked; cysteine pairing not given here; UniProt Q8N104 21-65, looked up)”, the “anti-SARS-CoV-2 activity (in words)” value [1] was “did not effectively inhibit viral infection”.

With “HBD5 (GLDFSQPFPSGEFAVCESCKLGRGKCRKECLENEKPDGNCRLNFLCCRQRI; ends and bridges not checked; cysteine pairing not given here; UniProt Q8NG35 28-78, looked up)” the “anti-SARS-CoV-2 activity (in words)” value [1] was “did not effectively inhibit viral infection”.

With CC[C@H](C)[C@@H]1NC(=O)[C@H](CCC(=O)O)NC(=O)[C@@H]2CSSC[C@@H]3NC(=O)[C@H](Cc4ccc(O)cc4)NC(=O)[C@@H](NC(=O)[C@@H](NC(=O)[C@H](C)N)[C@@H](C)O)CSSC[C@@H](C(=O)N[C@@H](CCCNC(=N)N)C(=O)O)NC(=O)[C@H](CSSC[C@H](NC(=O)[C@H](CCCNC(=N)N)NC(=O)CNC(=O)[C@H]([C@@H](C)O)NC(=O)[C@H](CCCNC(=N)N)NC3=O)C(=O)N[C@@H](C)C(=O)N[C@@H]([C@@H](C)O)C(=O)N[C@@H](CCCNC(=N)N)C(=O)N[C@@H](CCC(=O)O)C(=O)N[C@@H](CO)C(=O)N[C@@H](CC(C)C)C(=O)N[C@@H](CO)C(=O)NCC(=O)N[C@@H](C(C)C)C(=O)N2)NC(=O)[C@H](CC(C)C)NC(=O)[C@H](CCCNC(=N)N)NC(=O)[C@H](Cc2ccc(O)cc2)NC(=O)[C@H](CC(C)C)NC(=O)[C@H](CCCNC(=N)N)NC(=O)CNC(=O)[C@H](CO)NC1=O [HD5] (H-ATCYCRTGRCATRESLSGVCEISGRLYRLCCR-OH; disulfide 3-31, 5-20, 10-30 (inferred); N-terminus and C-terminus assumed) the “cytotoxicity (cell viability, MTS, in words)” value (HEK 293T-hACE2 cells) was “not cytotoxic”, the “post-entry effect on infection (in words)” value [1] was “None of the tested defensins affected infection after viral entry” and the “protection by pre-treatment of cells (in words)” value [1] was “partially blocked viral infection”. For the same molecule, the “suppression of SARS-CoV-2 infection” value [1] was 60%, the “inhibition of the earlier Wuhan strain” value ([1]; pseudotyped viruses expressing spike proteins (Wuhan-Hu-1, 48 h, 50 μg/mL)) was 96% and the “anti-SARS-CoV-2 activity in A549 cells (in words)” value [2] was “exhibited anti-SARS-CoV-2 activity”. The “anti-SARS-CoV-2 activity in Caco-2 cells (in words)” value [3] was “exhibited anti-SARS-CoV-2 activity”.

In the case of HD6, the “cytotoxicity (cell viability, MTS, in words)” value (HEK 293T-hACE2 cells) is reported as “not cytotoxic” and the “anti-SARS-CoV-2 activity (in words)” value [1] is reported as “only blocked SARS-CoV-2 infection at the highest concentration tested”.

In the case of “HNP4 (VCSCRLVFCRRTELRVGNCLIGGVSFTYCCTRV; ends and bridges not checked; cysteine pairing not given here; UniProt P12838 64-96, looked up)”, the “anti-SARS-CoV-2 activity (in words)” value [1] is reported as “substantially less potent”.

B1: pro-HD5 (protein, UniProt Q01523 20-94, looked up)
pro-form: ESLQERADEATTQKQSGEDNQDLAISFAGNGLSALRTSGSQARATCYCRTGRCATRESLSGVCEISGRLYRLCCR
modifications: pro-form
For B1, the “anti-SARS-CoV-2 activity (in words)” value [1] was “no anti-SARS-CoV-2 activity”.

Reference: publication PMC8310277 (Viruses, 2021)
